PMC9340770 (Journal of Medicinal Chemistry, 2022)
Read-outs that look alike come from different tables or passages of the source.

Tests used:
Rat PK (IV and PO) = type: in vivo, Sprague–Dawley rats
Text: Table 9 PK Parameters for MRTX0902 (32) across Species | column: rat

Dog PK (IV and PO) = type: in vivo, beagle dogs
Text: Table 9 PK Parameters for MRTX0902 (32) across Species | column: dog

[1] = pKa determination (Sirius T3); type: physicochemical; settings: for pKa: water/methanol co-solvent mixture
Procedure: Sirius T3Dt (Sirius Analytical Instruments Ltd) fitted with combination Ag/AgCl pH electrode was used for the determination of dissociation constants. The pKa and psKa values were calculated by Sirius T3Dt software (Sirius Analytical Instruments Ltd, Version 1.0.12.120). There are two methods available on the Sirius T3 for pKa measurement: potentiometric titration and spectroscopic (UV) titration.
UV metric method: Pipetted 5 µL of sample stock solution (10 mM in DMSO) and 25 µL fast UV buffer into a sample vial, and 1.5 mL of 80%v/v MeOH was added into the sample vial automatically. Pre - acidified the sample solution with 0.5 M HCl by the instrument automatically, and then titrated three times from low to high pH. Refined the data to get aqu eous pKa value. pH metric method: About 1 mg of sample was weighed into a sample vial. 1.50 mL of 80%v/v MeOH was added into the vial automatically. The sample was solution pre -acidified with 0.5 M HCl by the instrument automatically, and then titrated three times from low to high pH. Refined the data to get aqueous pKa value.
Sirius T3 software always fits Yasuda -Shedlovsky data linearly, according to the equation.
• Yi is calculated as psKa + log [H 2O]
• psKa represents apparent pKa values of compounds measured in water/co -solvent mixtures • [H2O] represents the concentration of H2O in mixtures solution […]
• ε i represents dielectric constant of water/co-solvent mixture
Table S3. pKa of MRTX0902
Cmpd pKa pKa (pH Final pKa

AVPR1A = molecular target: T1, AVPR1A (Homo sapiens, UniProt P37288); assay: Safetyscan Calcium Flux; type: cell-based
T1 construct: purchased DiscoverX (Eurofins) Safetyscan Panel

ADRB1 = molecular target: T2, ADRB1 (Homo sapiens, UniProt P08588); assay: Safetyscan cAMP; type: cell-based
T2 construct: purchased DiscoverX (Eurofins) Safetyscan Panel

ADRB2 = molecular target: T3, ADRB2 (Homo sapiens, UniProt P07550); assay: Safetyscan cAMP; type: cell-based
T3 construct: purchased DiscoverX (Eurofins) Safetyscan Panel

HRH2 = molecular target: T4, HRH2 (Homo sapiens, UniProt P25021); assay: Safetyscan cAMP; type: cell-based
T4 construct: purchased DiscoverX (Eurofins) Safetyscan Panel

hERG = molecular target: T5, hERG (Homo sapiens, UniProt Q12809); assay: Safetyscan Ion Channel; type: cell-based; settings: blocker mode, read-out: RC50 (IC50) hERG Blocker
T5 construct: purchased DiscoverX (Eurofins)

INSR = molecular target: T6, INSR (Homo sapiens, UniProt P06213); assay: Safetyscan Kinases Binding; settings: read-out: RC50 (IC50) INSR Inhibitor
T6 construct: purchased DiscoverX (Eurofins)

LCK = molecular target: T7, LCK (Homo sapiens, UniProt P06239); assay: Safetyscan Kinases Binding; settings: read-out: RC50 (IC50) LCK Inhibitor
T7 construct: purchased DiscoverX (Eurofins)

ROCK1 = molecular target: T8, ROCK1 (Homo sapiens, UniProt Q13464); assay: Safetyscan Kinases Binding; settings: read-out: RC50 (IC50) ROCK1 Inhibitor
T8 construct: purchased DiscoverX (Eurofins)

VEGFR2 = molecular target: T9, VEGFR2 (Homo sapiens, UniProt P35968); assay: Safetyscan Kinases Binding; settings: read-out: RC50 (IC50) VEGFR2 Inhibitor
T9 construct: purchased DiscoverX (Eurofins)

COX1 = molecular target: T10, COX1 (Homo sapiens, UniProt P23219); assay: Safetyscan Enzymatic; type: biochemical; settings: read-out: RC50 (IC50) COX1 Inhibitor
T10 construct: purchased DiscoverX (Eurofins)

COX2 = molecular target: T11, COX2 (Homo sapiens, UniProt P35354); assay: Safetyscan Enzymatic; type: biochemical; settings: read-out: RC50 (IC50) COX2 Inhibitor
T11 construct: purchased DiscoverX (Eurofins)

MAOA = molecular target: T12, MAOA (Homo sapiens, UniProt P21397); assay: Safetyscan Enzymatic; type: biochemical; settings: read-out: RC50 (IC50) MAOA Inhibitor
T12 construct: purchased DiscoverX (Eurofins)

PDE3A = molecular target: T13, PDE3A (Homo sapiens, UniProt Q14432); assay: Safetyscan Enzymatic; type: biochemical; settings: read-out: RC50 (IC50) PDE3A Inhibitor
T13 construct: purchased DiscoverX (Eurofins)

PDE4D2 = molecular target: T14, PDE4D2 (Homo sapiens, UniProt Q08499); assay: Safetyscan Enzymatic; type: biochemical; settings: read-out: RC50 (IC50) PDE4D2 Inhibitor
T14 construct: purchased DiscoverX (Eurofins)

[2] = mouse, IV 3 mg/kg
CYP3A4 = CYP3A4 (Homo sapiens, UniProt P08684); assay: biochemical
[3] = test system: safety panel comprised of 78 protein targets; assay: DiscoverX (Eurofins) Safetyscan panel, overall; settings: safety panel of 78 protein targets
[4] = test system: MIA PaCa-2 tumor mouse xenograft; assay: Antitumor efficacy study in MIA PaCa-2 mouse xenograft; settings: for tumor growth inhibition (TGI): single agent, 25 days
[5] = test system: pERK in MIA PaCa-2 tumors; assay: Tumor pharmacodynamic (pERK) study in MIA PaCa-2 mouse xenograft

T3 sequence (P07550 whole entry): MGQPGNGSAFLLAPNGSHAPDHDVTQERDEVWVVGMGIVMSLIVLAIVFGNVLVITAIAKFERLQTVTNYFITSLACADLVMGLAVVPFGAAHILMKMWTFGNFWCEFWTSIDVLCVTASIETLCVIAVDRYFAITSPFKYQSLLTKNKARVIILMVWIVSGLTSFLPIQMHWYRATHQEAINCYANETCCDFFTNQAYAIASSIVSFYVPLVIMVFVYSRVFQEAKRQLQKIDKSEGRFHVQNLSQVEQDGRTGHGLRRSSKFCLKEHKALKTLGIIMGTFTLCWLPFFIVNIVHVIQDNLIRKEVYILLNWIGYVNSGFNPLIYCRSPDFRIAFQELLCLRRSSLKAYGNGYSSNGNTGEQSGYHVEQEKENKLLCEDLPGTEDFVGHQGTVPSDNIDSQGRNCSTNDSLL
T1 sequence (P37288 whole entry): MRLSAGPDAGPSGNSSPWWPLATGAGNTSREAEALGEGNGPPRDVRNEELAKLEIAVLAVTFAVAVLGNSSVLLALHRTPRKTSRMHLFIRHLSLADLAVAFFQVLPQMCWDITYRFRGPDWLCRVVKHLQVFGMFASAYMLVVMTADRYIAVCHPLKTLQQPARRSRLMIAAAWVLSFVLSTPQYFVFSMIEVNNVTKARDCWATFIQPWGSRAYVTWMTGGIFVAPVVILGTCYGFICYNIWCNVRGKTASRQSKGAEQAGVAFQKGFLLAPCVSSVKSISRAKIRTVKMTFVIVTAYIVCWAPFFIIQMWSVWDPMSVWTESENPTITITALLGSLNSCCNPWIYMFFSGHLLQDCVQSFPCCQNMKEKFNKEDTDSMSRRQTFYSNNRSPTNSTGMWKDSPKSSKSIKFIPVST
T4 sequence (P25021 whole entry): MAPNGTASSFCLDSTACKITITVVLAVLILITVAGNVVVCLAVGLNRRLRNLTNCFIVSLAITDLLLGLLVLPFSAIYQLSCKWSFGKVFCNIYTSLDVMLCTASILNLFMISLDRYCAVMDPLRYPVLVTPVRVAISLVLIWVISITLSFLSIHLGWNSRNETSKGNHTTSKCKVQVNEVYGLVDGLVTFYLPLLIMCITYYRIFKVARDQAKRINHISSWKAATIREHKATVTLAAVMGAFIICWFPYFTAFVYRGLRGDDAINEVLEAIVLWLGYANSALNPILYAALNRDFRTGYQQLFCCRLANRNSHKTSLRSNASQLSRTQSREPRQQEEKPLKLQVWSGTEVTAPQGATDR
T2 sequence (P08588 whole entry): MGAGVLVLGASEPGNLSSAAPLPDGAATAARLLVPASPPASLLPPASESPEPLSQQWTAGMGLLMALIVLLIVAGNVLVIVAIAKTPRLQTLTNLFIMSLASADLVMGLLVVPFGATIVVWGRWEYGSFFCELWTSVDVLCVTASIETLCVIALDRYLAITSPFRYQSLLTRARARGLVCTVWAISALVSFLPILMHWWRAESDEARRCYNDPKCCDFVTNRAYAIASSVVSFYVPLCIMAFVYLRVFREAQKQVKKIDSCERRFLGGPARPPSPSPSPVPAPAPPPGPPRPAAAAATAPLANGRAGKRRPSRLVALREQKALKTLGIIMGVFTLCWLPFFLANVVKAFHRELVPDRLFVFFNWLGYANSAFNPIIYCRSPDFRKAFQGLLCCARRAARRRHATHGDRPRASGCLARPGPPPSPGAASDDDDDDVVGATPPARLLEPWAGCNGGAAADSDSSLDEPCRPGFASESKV
T6 sequence (P06213 28-1382): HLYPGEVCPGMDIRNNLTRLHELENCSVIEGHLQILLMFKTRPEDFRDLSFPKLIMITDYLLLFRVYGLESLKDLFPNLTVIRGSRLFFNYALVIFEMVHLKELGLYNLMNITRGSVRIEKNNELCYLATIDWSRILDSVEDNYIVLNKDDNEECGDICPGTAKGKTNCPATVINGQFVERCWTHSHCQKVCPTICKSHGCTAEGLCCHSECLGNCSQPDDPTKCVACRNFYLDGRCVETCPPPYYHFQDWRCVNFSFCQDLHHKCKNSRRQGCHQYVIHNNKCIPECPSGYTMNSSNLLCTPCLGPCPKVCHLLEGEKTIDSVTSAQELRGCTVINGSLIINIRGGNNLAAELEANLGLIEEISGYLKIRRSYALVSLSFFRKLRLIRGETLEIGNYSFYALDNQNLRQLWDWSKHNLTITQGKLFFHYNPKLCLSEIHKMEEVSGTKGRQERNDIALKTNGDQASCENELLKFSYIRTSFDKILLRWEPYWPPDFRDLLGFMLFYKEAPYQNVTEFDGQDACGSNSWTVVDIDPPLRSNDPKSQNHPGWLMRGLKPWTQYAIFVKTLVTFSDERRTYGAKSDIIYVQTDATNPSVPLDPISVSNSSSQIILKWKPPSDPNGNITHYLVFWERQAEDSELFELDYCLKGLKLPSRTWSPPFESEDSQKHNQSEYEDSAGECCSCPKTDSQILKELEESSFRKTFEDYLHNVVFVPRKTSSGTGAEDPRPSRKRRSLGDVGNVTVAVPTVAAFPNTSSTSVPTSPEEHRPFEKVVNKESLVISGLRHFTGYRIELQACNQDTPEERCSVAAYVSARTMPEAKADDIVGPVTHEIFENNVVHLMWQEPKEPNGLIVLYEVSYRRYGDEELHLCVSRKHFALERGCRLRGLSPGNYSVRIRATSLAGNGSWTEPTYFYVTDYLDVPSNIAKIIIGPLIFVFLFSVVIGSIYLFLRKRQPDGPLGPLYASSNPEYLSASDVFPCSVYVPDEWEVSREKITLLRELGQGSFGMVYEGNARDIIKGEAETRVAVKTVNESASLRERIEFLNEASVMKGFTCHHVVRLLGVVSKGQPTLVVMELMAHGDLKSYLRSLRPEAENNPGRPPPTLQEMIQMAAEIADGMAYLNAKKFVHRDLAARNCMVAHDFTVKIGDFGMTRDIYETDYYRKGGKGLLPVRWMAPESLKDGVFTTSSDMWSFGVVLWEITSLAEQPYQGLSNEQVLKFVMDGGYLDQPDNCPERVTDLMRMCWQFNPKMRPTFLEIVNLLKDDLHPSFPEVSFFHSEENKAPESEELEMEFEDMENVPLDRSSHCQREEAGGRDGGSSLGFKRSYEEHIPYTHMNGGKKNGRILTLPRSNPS
T9 sequence (P35968 20-1356): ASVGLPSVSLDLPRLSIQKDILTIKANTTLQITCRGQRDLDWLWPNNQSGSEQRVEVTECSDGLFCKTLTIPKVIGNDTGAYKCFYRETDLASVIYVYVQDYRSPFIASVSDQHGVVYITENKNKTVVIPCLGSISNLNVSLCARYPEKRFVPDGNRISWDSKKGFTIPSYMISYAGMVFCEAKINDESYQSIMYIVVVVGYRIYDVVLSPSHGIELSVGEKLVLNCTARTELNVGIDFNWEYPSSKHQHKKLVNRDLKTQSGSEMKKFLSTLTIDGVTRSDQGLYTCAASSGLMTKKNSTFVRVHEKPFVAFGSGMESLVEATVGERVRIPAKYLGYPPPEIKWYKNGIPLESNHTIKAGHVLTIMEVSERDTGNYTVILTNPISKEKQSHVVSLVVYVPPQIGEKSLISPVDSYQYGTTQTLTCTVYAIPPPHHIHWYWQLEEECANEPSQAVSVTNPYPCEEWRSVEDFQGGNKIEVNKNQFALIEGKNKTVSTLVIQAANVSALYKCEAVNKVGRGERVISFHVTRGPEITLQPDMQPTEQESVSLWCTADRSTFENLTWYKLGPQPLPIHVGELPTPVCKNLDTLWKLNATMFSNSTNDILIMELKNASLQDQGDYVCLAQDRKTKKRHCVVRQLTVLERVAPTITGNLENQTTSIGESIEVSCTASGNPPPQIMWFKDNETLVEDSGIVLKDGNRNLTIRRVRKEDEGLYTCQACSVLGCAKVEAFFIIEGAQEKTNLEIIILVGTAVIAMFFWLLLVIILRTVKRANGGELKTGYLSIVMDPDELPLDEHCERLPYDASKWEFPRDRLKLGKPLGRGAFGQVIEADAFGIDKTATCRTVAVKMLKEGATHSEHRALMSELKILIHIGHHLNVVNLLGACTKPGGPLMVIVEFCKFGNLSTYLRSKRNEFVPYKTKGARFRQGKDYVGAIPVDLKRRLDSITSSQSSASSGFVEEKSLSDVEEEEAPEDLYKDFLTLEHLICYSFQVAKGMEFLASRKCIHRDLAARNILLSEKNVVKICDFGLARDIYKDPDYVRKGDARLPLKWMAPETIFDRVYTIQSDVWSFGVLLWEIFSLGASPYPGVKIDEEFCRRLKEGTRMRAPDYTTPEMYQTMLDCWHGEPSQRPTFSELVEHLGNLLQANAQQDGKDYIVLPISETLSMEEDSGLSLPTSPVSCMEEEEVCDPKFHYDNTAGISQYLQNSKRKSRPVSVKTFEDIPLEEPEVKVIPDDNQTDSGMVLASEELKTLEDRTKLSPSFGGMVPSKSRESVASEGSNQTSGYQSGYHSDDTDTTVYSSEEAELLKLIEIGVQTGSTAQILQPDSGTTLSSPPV
Chain of CYP3A4 (P08684 whole entry): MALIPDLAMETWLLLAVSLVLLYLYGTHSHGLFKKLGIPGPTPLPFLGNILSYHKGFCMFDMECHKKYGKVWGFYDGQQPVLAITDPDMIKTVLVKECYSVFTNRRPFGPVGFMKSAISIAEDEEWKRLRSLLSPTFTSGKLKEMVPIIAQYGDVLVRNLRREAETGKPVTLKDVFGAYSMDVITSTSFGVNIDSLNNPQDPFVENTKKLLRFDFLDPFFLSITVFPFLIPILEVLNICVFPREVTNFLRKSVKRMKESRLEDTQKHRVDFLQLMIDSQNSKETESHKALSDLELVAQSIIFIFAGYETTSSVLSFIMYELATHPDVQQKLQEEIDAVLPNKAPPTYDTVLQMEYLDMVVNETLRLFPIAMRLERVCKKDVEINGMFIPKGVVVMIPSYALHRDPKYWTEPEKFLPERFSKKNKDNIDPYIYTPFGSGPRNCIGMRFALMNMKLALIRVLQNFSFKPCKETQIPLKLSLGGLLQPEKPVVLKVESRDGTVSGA

## Cc1c(C#N)cccc1[C@@H](C)Nc1nnc(C)c2cnc(N3CCOCC3)cc12 [Compound 32, (R)-2-Methyl-3-(1-((4-methyl-7-morpholinopyrido[3,4-d]pyridazin-1-yl)amino)ethyl)benzonitrile]
Rat PK (IV and PO); IV 1 mg/kg
  IV t1/2: 37.2 min
  Vd,ss: 0.28 L/kg
Rat PK (IV and PO); Sprague-Dawley, in vivo, IV 1 mg/kg
  clearance: 14.6 mL/min/kg
Rat PK (IV and PO); Sprague-Dawley, in vivo, IV/PO 1/10 mg/kg, PO suspension in 0.5% MC (4000 cps)/0.2% Tween80 in water
  bioavailability: 83%
Dog PK (IV and PO); IV/PO 2/10 mg/kg, PO suspension in 0.5% MC (4000 cps)/0.2% Tween80 in water
  F: 38%
Dog PK (IV and PO); beagle, in vivo, IV 2 mg/kg
  clearance: 7.6 mL/min/kg
Dog PK (IV and PO); beagle, in vivo, IV 2 mg/kg, read-out: IV t1/2 (converted)
  half-life: 51.6 min
Dog PK (IV and PO); beagle, in vivo, IV 2 mg/kg, read-out: Vd,ss
  Vd: 0.48 L/kg
[1]; pH 7.4, based on measured pKa
  ionized at pH 7.4: ~17%
[1]; UV metric method, read-out: pKa (UV metric)
  pKa: 6.78
[1]; pH 7.4, pKa (final pKa result)
  pKa: 6.7
[1]; pH metric method, read-out: pKa (pH metric)
  pKa: 6.62
AVPR1A; agonist mode, read-out: RC50 (EC50) AVPR1A Agonist
  EC50: > 10 µM
AVPR1A; antagonist mode, read-out: RC50 (IC50) AVPR1A Antagonist
  IC50: > 10 µM
ADRB1; agonist mode, read-out: RC50 (EC50) ADRB1 Agonist
  EC50: > 10 µM
ADRB1; antagonist mode, read-out: RC50 (IC50) ADRB1 Antagonist
  IC50: > 10 µM
ADRB2; agonist mode, read-out: RC50 (EC50) ADRB2 Agonist
  EC50: > 10 µM
ADRB2; antagonist mode, read-out: RC50 (IC50) ADRB2 Antagonist
  IC50: > 10 µM
HRH2; agonist mode, read-out: RC50 (EC50) HRH2 Agonist
  EC50: > 10 µM
HRH2; antagonist mode, read-out: RC50 (IC50) HRH2 Antagonist
  IC50: > 10 µM
hERG
  IC50: > 10 µM
INSR
  IC50: > 10 µM
LCK
  IC50: > 10 µM
ROCK1
  IC50: > 10 µM
VEGFR2
  IC50: > 10 µM
COX1
  IC50: > 10 µM
COX2
  IC50: > 10 µM
MAOA
  IC50: 8.88 µM
PDE3A
  IC50: > 10 µM
PDE4D2
  IC50: > 10 µM
[2]
  Cl: 4.4 mL/min/kg
  IV t1/2: 78 min
  Vd,ss: 0.28 L/kg
CYP3A4
  IC50: 3.6 µM
[3]
  IC50: > 10 µM
[4]; MRTX0902 25 mg/k bid in combination with MRTX849 10 mg/kg qd
  tumor regression: −54%
[4]; MRTX0902 50 mg/kg bid in combination with MRTX849 10 mg/kg qd
  tumor regression: −92%
[4]; MRTX0902 50 mg/kg bid with MRTX849 10 mg/kg qd, n = 5 animals/group
  tumor-free animals: two tumor-free animals
[4]; 25 mg/kg bid PO
  tumor growth inhibition (TGI): 41%
[4]; 50 mg/kg bid PO
  tumor growth inhibition (TGI): 53%
[5]; MRTX0902 in combination with MRTX849, 6 days of dosing, tumors collected 4 h after last dose
  pERK modulation in tumors, combination: increased pERK modulation
[5]; calculated from AUC0–24 of 50 mg/kg bid in combination with MRTX849, MIA PaCa-2 PD study, 6 days of dosing
  efficacious free Cavg: 25 nM
